Here are results for twelve molecules from US7217411B2, “CeSERT genes, proteins, and modulatory compounds” (Massachusetts Institute of Technology, priority 2000, dated 2007).

Values joined by “and” are separate entries in the source; they are usually repeats but may differ in a detail not shown here. Identical values can stand only once.

Series [1] has as its target T1, MOD-5 CeSERT (Caenorhabditis elegans, UniProt Q963F3).
T1 sequence (Q963F3 1-671): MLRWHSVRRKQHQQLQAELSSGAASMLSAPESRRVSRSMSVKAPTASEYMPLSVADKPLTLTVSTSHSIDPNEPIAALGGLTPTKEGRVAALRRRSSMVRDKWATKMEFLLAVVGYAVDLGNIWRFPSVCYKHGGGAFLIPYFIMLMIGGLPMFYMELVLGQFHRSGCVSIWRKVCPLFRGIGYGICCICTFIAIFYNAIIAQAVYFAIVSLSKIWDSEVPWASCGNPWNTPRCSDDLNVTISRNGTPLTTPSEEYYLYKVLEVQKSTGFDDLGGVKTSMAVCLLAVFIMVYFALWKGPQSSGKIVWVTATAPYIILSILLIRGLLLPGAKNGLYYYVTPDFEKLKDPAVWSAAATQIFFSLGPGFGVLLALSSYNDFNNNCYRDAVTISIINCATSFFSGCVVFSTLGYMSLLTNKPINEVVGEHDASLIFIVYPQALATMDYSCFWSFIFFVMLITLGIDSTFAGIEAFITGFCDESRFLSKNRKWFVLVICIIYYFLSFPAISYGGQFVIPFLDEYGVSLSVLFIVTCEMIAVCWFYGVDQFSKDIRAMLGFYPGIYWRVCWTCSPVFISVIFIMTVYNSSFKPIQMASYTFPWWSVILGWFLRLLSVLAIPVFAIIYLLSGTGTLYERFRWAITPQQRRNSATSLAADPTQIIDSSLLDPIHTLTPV
Nature of the series: cell-based.

The test system of series [2] is C. elegans. The series is described as follows: egg-laying assay. The class given is in vivo. How it is done:
Egg-laying assays were performed as described in Trent et al. (Genetics 104:619–647, 1983).

Series [3] relates to C. elegans. Nature of the series: fluoxetine-induced nose contraction. The class given is in vivo. Conditions: 20 minutes. From the text: This conclusion is consistent with the conclusion by Choy and Thomas (1999) that fluoxetine-mediated nose contraction is serotonin-independent, although their hypothesis was based on studies of cat-1(e1111) mutants, which are defective in signaling by several biogenic amines (Duerr et al., J Neurosci 19:72–84, 1999), and cat-4 mutants, which we found to not completely lack serotonin (FIG. 1B).

Series [4] deals with C. elegans. Nature of the series: fluoxetine-induced paralysis (liquid locomotion assay). The class given is in vivo. The source says:
(Five trials with 20 animals of each genotype at each concentration and the animals were scored for paralysis after ten minutes.) There was no difference in the time-course of paralysis at any of the concentrations tested. These observations indicate that fluoxetine-induced paralysis in C. elegans is not caused by the lack of serotonin uptake from synapses. Fluoxetine-treated wild-type and mod-5(n3314) mutant animals assumed a rigid body posture. […] Serotonin has been proposed to decrease excitatory input to the locomotory muscles (Nurrish et al., Neuron 24:231–242, 1999).
(§1) The plates were allowed to dry at room temperature with their lids removed for more than 2 hours.
Animals to be tested for sensitivity or insensitivity to serotonin in this liquid locomotion assay were picked as L4 animals 16–20 hours prior to assay and the plates were coded so that the experimenter was blind to the genotype of the animals to be scored. On the day of the assay, serotonin (as a creatinine sulphate salt) was dissolved just before use, in M9, at the required concentrations, and 200 μl were aliquoted to the wells of a flat-bottomed 96-well polystyrene plate. […] Fluoxetine-induced paralysis was scored in a similar manner at 10 min.

For series [5], the system named is C. elegans. Conditions: in vivo; cited from earlier work.
Series [6] deals with C. elegans. Nature of the series: enhanced slowing response (locomotory rate of food-deprived animals on bacteria). The format is in vivo. How it is done:
as §1
For the experiment shown in FIG. 2, well-fed and food-deprived animals were transferred to assay plates with or without a bacterial lawn, and the locomotory rate of each animal was recorded after 5 min; food-deprived animals were transferred to plates without bacteria 30 min prior to the transfer to locomotory assay plates as is also described in Sawin et al. (Neuron 26:619–623, 2000). At least 10 trials were performed for each genotype for each condition. For FIG. 2, each trial involved testing at least five animals for each of the conditions; a given animal was tested in only one condition. p values were calculated by comparing the combined data for the mutants from all of the separate trials under one set of conditions to the combined data for the wild-type animals assayed in parallel under the same conditions. In FIG. 2B the data were obtained from three well-fed animals of each ablation state, seven mock-ablated and food-deprived animals, and 12 NSM-ablated and food-deprived animals. In FIG. 2D, serotonin dose-response curves for wild-type and mod-5 mutant animals were generated from averages of five trials with 20 animals of each genotype at each concentration in which animals were scored for movement after 5 min.
Alternatively, nematodes to be tested in a non-liquid locomotion assay were picked as L4 animals 16–20 hours prior to the assay. Locomotion was assayed by placing the nematode on an assay plate (prepared by spreading a solution of E. coli strain HB101 in NGM agar in 5 cm plates, using a ring with an inner diameter of approximately 1 cm and an outer diameter of approximately 3.5 cm, and allowing the bacteria to grow 13–15 hours at 37 C.), observing each nematode under a dissecting microscope for 20 seconds, and counting the number of dorsal-ventral bends that occurred in the anterior portion of the body during the interval.
To assay locomotion rates in food-deprived animals, 5–15 animals were removed from plates with ample food, washed twice in S-basal buffer, and transferred to 5 cm NGM agar plates without bacteria. Food-deprived animals were incubated on these plates for 30 minutes at room temperature, and then were transferred to assay plates. Locomotion rates were assayed as described above for satiated animals.

Another series concerns C. elegans NSMs. Nature of the series: serotonin uptake in vivo, anti-serotonin staining of NSMs. Conditions: tph-1, 2 mM 5-HT for 2 hours, no fluoxetine.
Series [7] concerns the target T1, MOD-5 CeSERT. Nature of the series: MOD-5-mediated [^3H]serotonin uptake in HEK293 cell lines stably expressing MOD-5. Conditions: for transport of [^3H]serotonin by MOD-5, % of control: inhibitor 100 μM, [^3H]serotonin 50 nM; for MOD-5-mediated uptake of radiolabeled neurotransmitter: 50 μM radiolabeled neurotransmitter vs 1 μM [^3H]serotonin.
Another series deals with other SERTs. Particulars: read-out: Km range of serotonin transport reported for other SERTs; cited from earlier work.
For a further series, the target named is T2, dSERT (Drosophila melanogaster, UniProt P51905).
T2 sequence (P51905 1-622): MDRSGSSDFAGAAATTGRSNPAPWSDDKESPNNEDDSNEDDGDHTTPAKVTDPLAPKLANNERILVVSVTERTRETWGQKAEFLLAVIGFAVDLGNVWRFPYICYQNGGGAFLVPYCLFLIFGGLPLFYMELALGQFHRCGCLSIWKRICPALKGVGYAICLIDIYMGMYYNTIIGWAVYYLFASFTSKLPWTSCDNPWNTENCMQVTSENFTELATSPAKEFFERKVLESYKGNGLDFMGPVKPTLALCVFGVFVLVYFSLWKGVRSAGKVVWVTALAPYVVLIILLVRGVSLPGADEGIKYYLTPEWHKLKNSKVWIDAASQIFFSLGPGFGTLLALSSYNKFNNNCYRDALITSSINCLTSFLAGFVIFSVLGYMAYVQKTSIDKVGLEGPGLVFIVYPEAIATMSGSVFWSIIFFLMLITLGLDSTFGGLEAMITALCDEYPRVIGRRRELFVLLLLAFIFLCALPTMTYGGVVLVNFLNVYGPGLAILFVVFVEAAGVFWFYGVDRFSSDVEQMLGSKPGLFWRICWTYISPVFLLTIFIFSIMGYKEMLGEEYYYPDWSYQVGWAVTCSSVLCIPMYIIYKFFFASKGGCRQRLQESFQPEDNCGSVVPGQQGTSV
Conditions: inhibitor 200 μM, [^3H]serotonin 100 nM; cited from earlier work.

Substrate in series [8]: NCCc1c[nH]c2ccc(O)cc12
The series is described as follows: cells, lysate or membranes. Particulars: other: HEK293 GFPMOD-5 cells, Eadie-Hoftsee transformation; pH 7.4; 37.0 °C.

The molecule `CN(C)CCCN1c2ccccc2CCc2ccccc21` [imipramine] returned an inhibition constant Ki on MOD-5 CeSERT [1] of 89 ± 58 nM.
For the molecule `CNCCC(Oc1ccc(C(F)(F)F)cc1)c1ccccc1` (stereo not drawn) [fluoxetine], the stimulation of egg-laying result is listed as “completely resistant” in the series with C. elegans [2] (cat-4 mutants); “no effect on egg-laying” in the series on C. elegans [2] (egl-1(n1084) mutants (lack HSNs)); “stimulated to lay eggs to nearly the same extent as was the wild-type” with C. elegans [2] (mod-5(n3314) mutants, 1.5 mM fluoxetine); “partially resistant” with C. elegans [2] (tph-1 mutants). Further, the “proportion of animals with contracted noses” value is 100% in the series on C. elegans [3] (tph-1, 2.9 mM); “approximately 25%” with C. elegans [3] (wild-type and mod-5(n3314), 1.5 mM); 100% with C. elegans [3] (wild-type and mod-5(n3314), 2.9 mM). Also, the “paralysis induced by fluoxetine treatment” value is recorded as “retained wild-type sensitivity to fluoxetine” in the series on C. elegans [4] (mod-5(n3314) mutants vs wild-type, scored after ten minutes) and “paralyzed tph-1 mutants to a similar extent as wild-type animals” in the series on C. elegans [4] (tph-1 mutants vs wild-type). Moreover, in the series on C. elegans [5], the “concentrations leading to paralysis, contraction of nose muscles, stimulation of egg-laying” value was 0.25–1 mg/ml and 0.7–2.9 mM. The “potentiation of the enhanced slowing response” value in the series on C. elegans [6] (bas-1, cat-4 mutants preincubated with 2 mM serotonin) was “exhibited a potentiated enhanced slowing response”; in the series on C. elegans [6] (mod-1(ok103) mutants), “potentiated by fluoxetine”; with C. elegans [6] (mod-5(n3314), mod-1(ok103) double mutants) it was “completely resistant”; in the series on C. elegans [6] (wild-type, food-deprived in 0.22 mM fluoxetine), “slow their locomotory rate more”.
Turning to `NCCc1c[nH]c2ccc(O)cc12` [serotonin], the “% Serotonin-positive NSMs” value is 0% in the series on C. elegans NSMs (mod-5(n3314)) and 98% with C. elegans NSMs. Also, at MOD-5 CeSERT [7] (HEK293 GFPMOD-5 cells), the “Vmax of MOD-5-mediated [^3H]serotonin transport” value was 8.31×10^−9 nmoles per cell per min. In the series on other SERTs, the Michaelis-Menten constant (Km) was 280 to 630 nM.
On to `NCC(O)c1ccc(O)cc1` (stereo not drawn) [octopamine], for which the “transport of [^3H]serotonin by MOD-5, % of control” value at MOD-5 CeSERT [7] was 86%±12%. For the same molecule, at dSERT, the “dSERT-mediated transport of [^3H]serotonin, % of control” value is given as 82%±15%.
For the molecule `NC[C@H](O)c1ccc(O)c(O)c1` [NE, norepinephrine], at MOD-5 CeSERT [7], the “MOD-5-mediated uptake of radiolabeled neurotransmitter” value (from here on “MOD-5-mediated uptake”) is listed as “inefficient at translocating”.
`NCCc1ccc(O)cc1` [tyramine]: on MOD-5 CeSERT [7], the “transport of [^3H]serotonin by MOD-5, % of control” value is listed as 54%±10%. The “dSERT-mediated transport of [^3H]serotonin, % of control” value on dSERT is 95%±15%.
Turning to `N[C@@H](CCC(=O)O)C(=O)O` [glutamate], the “MOD-5-mediated uptake” value at MOD-5 CeSERT [7] is “inefficient at translocating”.
As to `NCCCC(=O)O` [GABA, gamma-aminobutyric acid], the “MOD-5-mediated uptake” value on MOD-5 CeSERT [7] is “inefficient at translocating”.
For `COC(=O)[C@H]1[C@@H](OC(=O)c2ccccc2)C[C@@H]2CC[C@H]1N2C` [cocaine], the Ki at MOD-5 CeSERT [1] came out at 4080 ± 349 nM.
Regarding `NCCc1c[nH]cn1` [histamine], the “MOD-5-mediated uptake” value on MOD-5 CeSERT [7] is on record as “inefficient at translocating”.
The same measure, in the same setting: to `NCCc1ccc(O)c(O)c1` [dopamine] belongs “inefficient at translocating”.

B1: MOD-5 CeSERT (Caenorhabditis elegans) (protein)
chain: T1 sequence (Q963F3 1-671)
With B1, in [8], the Km stood at 150 ± 8 nM.

The Ki is the dissociation constant of the complex between target and ligand, obtained from inhibition or displacement. A low value points to higher affinity. In general, Km refers to the concentration of substrate that gives half-maximal velocity.
